Measurements as given in paper PMC8036409 (Molecules, 2021).
Several values for one entry are separate records, joined by “and”; a condition that tells them apart may be missing. Equal values may be shown once. Where a name gives a salt, the structure may show the parent alone. Read-outs that look alike come from different tables or passages of the source.

Tests used:
[1] = DPPH free radical scavenging assay; settings: for DPPH Percent Inhibition (Mean ± S.E.M): n = 3
Experimental: (§1) The free radical scavenging capacity of the isolated compounds was determined using DPPH and ABTS assays. To prepare the DPPH stock solution, 30 mg of DPPH was dissolved in 100 mL of methanol. Likewise, to prepare ABTS stock solution, 383 mg of 7 mM ABTS and 66.2 mg of 2.45 mM K2S2O8 were taken, each of them was individually dissolved in 100 mL of methanol and mixed together thoroughly. For the free radical development, the solutions were kept in dark for one day. Different dilutions (62.5, 125, 250, 500, 1000 μg/mL) from each of the sample stock solutions (5 mg/5 mL of methanol) were prepared. Each of the dilutions (0.8 mL) was mixed with 0.8 mL of DPPH stock solution and incubated for 15 min and their absorbance was recorded at 515 nm. Likewise, 0.8 mL of each of the same dilutions was mixed with 2 mL of ABTS solution, incubated for 25 min and their absorbance was recorded at 745 nm. The percent scavenging potentials of compounds were calculated using the following equation:(1) Percent scavenging= A−B/A × 100, where A is the absorbance of oxidized stock (DPPH/ABTS) used as control, and B is the absorbance of the sample.

[2] = ABTS free radical scavenging assay; settings: for ABTS Percent Inhibition (Mean ± S.E.M): n = 3
Experimental: as §1

[3] = target: T1, butyrylcholinesterase (BChE) (Homo sapiens, UniProt P06276); assay: Butyrylcholinesterase inhibition, Ellman's assay; assay type: biochemical; settings: for inhibition at 125 µg/mL / inhibition at 500 µg/mL / inhibition at 1000 µg/mL / inhibition at 250 µg/mL: read-out: Percent BChE (Mean ± SEM), %inhibition
Experimental: (§2) AChE and BChE were used as representative enzymes to determine the anticholinesterase effect of isolated compounds using Ellman’s assay with slight modifications. Sample stocks (5 mg/5 mL in methanol) were prepared and a range of serial dilutions (125, 250, 500, 1000 μg/mL) was made from each of them. Phosphate buffer (6.8 pH) was used for making the enzyme and substrate solutions.

[4] = target: T1, butyrylcholinesterase (BChE); assay: Butyrylcholinesterase inhibition, Ellman's assay; assay type: biochemical; settings: read-out: Percent BChE (Mean ± SEM), %inhibition
α-amylase = assay: α-Amylase inhibition assay (DNS method); assay type: biochemical; settings: for Percent Inhibition of α-Amylase (Mean ± S.E.M): n = 3
Experimental: The degree of inhibition was assessed by quantifying maltose equivalents using a slightly modified dinitrosalicylic acid (DNS) method. From each of the sample dilutions, 1 mL was pre-incubated with 1 U/mL α-amylase for half an hour. After incubation, 1 mL of 1% of starch solution was added to the mixture and further incubated for 10 min. To stop the reaction, 1 mL DNS reagent was added to the reaction mixture and heated in a boiling water bath for 5 min. […] The absorbance was measured at 540 nm.

[5] = target: T2, acetylcholinesterase (AChE) (Homo sapiens, UniProt P22303); assay: biochemical; settings: read-out: Percent AChE (Mean ± SEM), %inhibition
[6] = target: T2, acetylcholinesterase (AChE); assay: biochemical; settings: for inhibition at 250 µg/mL / inhibition at 500 µg/mL / inhibition at 1000 µg/mL / inhibition at 125 µg/mL: read-out: Percent AChE (Mean ± SEM), %inhibition
Experimental: as §2

α-glucosidase = α-glucosidase (Saccharomyces cerevisiae, UniProt P53341); assay: α-Glucosidase inhibition assay; assay type: biochemical
Experimental: α-Glucosidase (0.5 unit/mL) was mixed with phosphate buffer (0.1 M, pH 6.9) to make enzyme stock solution. Likewise, a substrate solution (p-nitrophenyl-α-D-glucopyranoside) was also prepared in phosphate buffer. Each of the sample dilutions was mixed with 1 mL of the enzyme solution separately and incubated at 37 °C for 15 min. Sodium carbonate solution (80 µL of 0.2 M) was added to the reaction mixture to stop the reaction, and the absorbance was measured at 405 nm. The % enzyme inhibition was calculated as (5) % inhibition=Control absorbance−Test absorbance /Control absorbance × 100

[7] = read-out: AChE IC50 (converted)

Sequence of α-glucosidase (P53341 whole entry): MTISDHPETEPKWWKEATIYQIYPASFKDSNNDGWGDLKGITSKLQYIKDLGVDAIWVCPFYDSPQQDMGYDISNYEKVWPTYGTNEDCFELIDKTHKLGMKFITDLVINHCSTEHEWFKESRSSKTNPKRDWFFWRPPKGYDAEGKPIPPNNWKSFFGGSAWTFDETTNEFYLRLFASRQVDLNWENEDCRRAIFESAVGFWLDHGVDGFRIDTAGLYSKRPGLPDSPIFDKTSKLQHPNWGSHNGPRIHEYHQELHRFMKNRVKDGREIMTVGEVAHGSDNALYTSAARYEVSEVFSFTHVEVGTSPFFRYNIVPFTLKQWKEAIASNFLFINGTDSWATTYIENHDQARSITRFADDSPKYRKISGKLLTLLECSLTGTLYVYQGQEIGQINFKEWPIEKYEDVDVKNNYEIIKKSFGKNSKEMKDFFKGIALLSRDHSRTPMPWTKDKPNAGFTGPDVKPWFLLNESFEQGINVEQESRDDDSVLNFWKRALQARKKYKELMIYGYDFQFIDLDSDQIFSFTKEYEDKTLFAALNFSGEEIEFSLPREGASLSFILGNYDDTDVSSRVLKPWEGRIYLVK
T1 sequence (P06276 29-602, species assumed): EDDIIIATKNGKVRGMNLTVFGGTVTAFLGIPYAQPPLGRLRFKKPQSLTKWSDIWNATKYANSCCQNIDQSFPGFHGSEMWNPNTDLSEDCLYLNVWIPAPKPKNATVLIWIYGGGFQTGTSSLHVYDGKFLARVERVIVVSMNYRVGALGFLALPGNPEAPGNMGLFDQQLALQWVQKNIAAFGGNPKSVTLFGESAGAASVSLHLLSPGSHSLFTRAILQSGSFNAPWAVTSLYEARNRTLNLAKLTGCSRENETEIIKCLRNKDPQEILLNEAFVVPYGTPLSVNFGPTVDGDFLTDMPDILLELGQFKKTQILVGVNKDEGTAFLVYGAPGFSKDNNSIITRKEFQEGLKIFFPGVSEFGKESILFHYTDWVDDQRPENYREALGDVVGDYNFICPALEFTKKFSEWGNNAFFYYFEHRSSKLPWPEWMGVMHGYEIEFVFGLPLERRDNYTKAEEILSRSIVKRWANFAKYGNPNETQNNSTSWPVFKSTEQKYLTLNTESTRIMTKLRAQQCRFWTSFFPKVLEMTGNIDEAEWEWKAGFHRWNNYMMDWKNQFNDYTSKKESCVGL
T2 sequence (P22303 32-614, species assumed): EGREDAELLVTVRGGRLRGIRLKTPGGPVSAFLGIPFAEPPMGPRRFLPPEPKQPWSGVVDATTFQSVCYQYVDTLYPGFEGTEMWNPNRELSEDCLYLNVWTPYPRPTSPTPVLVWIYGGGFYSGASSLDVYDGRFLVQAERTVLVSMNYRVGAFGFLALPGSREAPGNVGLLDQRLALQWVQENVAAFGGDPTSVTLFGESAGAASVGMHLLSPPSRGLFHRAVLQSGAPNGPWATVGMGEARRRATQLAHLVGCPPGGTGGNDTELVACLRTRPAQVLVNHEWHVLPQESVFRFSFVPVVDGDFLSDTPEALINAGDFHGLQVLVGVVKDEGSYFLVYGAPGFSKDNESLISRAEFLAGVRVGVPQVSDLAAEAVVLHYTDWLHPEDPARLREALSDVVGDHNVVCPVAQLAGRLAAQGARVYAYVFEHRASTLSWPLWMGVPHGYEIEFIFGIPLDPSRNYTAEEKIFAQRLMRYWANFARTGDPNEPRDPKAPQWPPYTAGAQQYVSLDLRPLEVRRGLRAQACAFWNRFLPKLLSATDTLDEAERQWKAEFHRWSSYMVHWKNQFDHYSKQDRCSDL

SMILES | DPPH IC50 [1] | DPPH Percent Inhibition (Mean ± S.E.M) ([1]; 62.5 μg/mL) | DPPH Percent Inhibition (Mean ± S.E.M) ([1]; 125 μg/mL) | DPPH Percent Inhibition (Mean ± S.E.M) ([1]; 250 μg/mL) | DPPH Percent Inhibition (Mean ± S.E.M) ([1]; 500 μg/mL) | DPPH Percent Inhibition (Mean ± S.E.M) ([1]; 1000 μg/mL) | ABTS IC50 [2] | ABTS Percent Inhibition (Mean ± S.E.M) ([2]; 62.5 μg/mL) | ABTS Percent Inhibition (Mean ± S.E.M) ([2]; 125 μg/mL) | ABTS Percent Inhibition (Mean ± S.E.M) ([2]; 250 μg/mL) | ABTS Percent Inhibition (Mean ± S.E.M) ([2]; 500 μg/mL) | ABTS Percent Inhibition (Mean ± S.E.M) ([2]; 1000 μg/mL) | inhibition at 125 µg/mL [3] | α-Amylase IC50 (α-amylase) | Percent Inhibition of α-Amylase (Mean ± S.E.M) (α-amylase; 62.5 μg/mL) | Percent Inhibition of α-Amylase (Mean ± S.E.M) (α-amylase; 125 μg/mL) | Percent Inhibition of α-Amylase (Mean ± S.E.M) (α-amylase; 250 μg/mL) | Percent Inhibition of α-Amylase (Mean ± S.E.M) (α-amylase; 500 μg/mL) | Percent Inhibition of α-Amylase (Mean ± S.E.M) (α-amylase; 1000 μg/mL) | IC50 [3] | further results
O=C1O[C@H]([C@@H](O)CO)C(O)=C1O [Ascorbic Acid, reference compound] | 35 µg/mL | 55.12 ± 1.30% | 65.35 ± 1.08% | 78.63 ± 1.48% | 87.87 ± 1.64% | 94.14 ± 1.76% | 35 µg/mL | 55.41 ± 1.39% | 63.30 ± 2.75% | 75.14 ± 3.16% | 83.45 ± 2.26% | 93.07 ± 0.53% |  |  |  |  |  |  |  |  | 
COc1ccc2c3c1O[C@H]1C[C@@H](O)C=C[C@@]31CCN(C)C2 [Galanthamine, reference compound] |  |  |  |  |  |  |  |  |  |  |  |  | 64.4 ± 1.85% |  |  |  |  |  |  |  | inhibition at 500 µg/mL [3]: 85.1 ± 2.06%; inhibition at 1000 µg/mL [3]: 93.89 ± 0.81%
CC(C)CCCCC1CC2CC(C)(C)C3C4CC(C)(C)C5CC(O)CC(C)C5C4CC(C)C3C2C1 (stereo not shown) [Compound IX, 5,5,7,7,11,13-hexamethyl-2-(5-methylhexyl)icosahydro-1H-cyclopenta[a]chrysen-9-ol] | 76 µg/mL | 47.85 ± 2.61% |  | 64.11 ± 2.91% | 72.19 ± 2.17% | 80.21 ± 040 ^ns percent | 76 µg/mL | 47.83 ± 2.26% | 57.19 ± 2.01% | 62.24 ± 2.30% | 71.29 ± 1.11% | 79.23 ± 1.01% | 55.4 ± 1.01% | 122 µg/mL | 40.13 ± 1.27 % | 50.61 ± 1.52 % | 59.14 ± 0.82 % | 65.13 ± 1.43 % | 70.21 ± 1.91 % | 186 µM | inhibition at 62.5 µg/mL [4]: 45.9 ± 1.26%; inhibition at 250 µg/mL [3]: 63 ± 1.45%; inhibition at 500 µg/mL [3]: 70.2 ± 0.71%; inhibition at 1000 µg/mL [3]: 78 ± 2.62%; inhibition at 62.5 µg/mL [5]: 46 ± 1.71%; IC50 [6, 7]: 186 µM; inhibition at 250 µg/mL [6]: 63.1 ± 1.51%; inhibition at 500 µg/mL [6]: 71.3 ± 1.37%; inhibition at 1000 µg/mL [6]: 78.11 ± 0.61%
CC(C)C(C(=O)O)c1ccc(C(C(=O)O)C(C)C)cc1 (stereo not shown) [Compound XII] | 60 µg/mL | 51.02 ± 1.30% | 61.75 ± 1.78% | 71.13 ± 1.31% | 78.17 ± 1.04% | 86.54 ±2.16% | 62 µg/mL | 50.51 ± 1.19% | 60.20 ± 3.05% | 71.44 ± 2.11% | 77.15 ± 1.06% | 86.07 ± 1.43% |  | 92 µg/mL | 47.51 ± 1.19 % | 56.10 ± 2.05 % | 66.94 ± 1.11 % | 74.25 ± 1.06 % | 79.07 ± 1.43 % | 216 µM | inhibition at 62.5 µg/mL ([4]; 62.5 μg/mL, n = 3): 50.4 ± 1.11%; inhibition at 125 µg/mL ([3]; 125 μg/mL, n = 3): 64.4 ± 1.85%; inhibition at 250 µg/mL ([3]; 250 μg/mL, n = 3): 77.1 ± 2.26%; inhibition at 500 µg/mL ([3]; 500 μg/mL, n = 3): 85.1 ± 2.06%; inhibition at 1000 µg/mL ([3]; 1000 μg/mL, n = 3): 93.89 ± 0.81%; inhibition at 62.5 µg/mL ([5]; 62.5 μg/mL, n = 3): 52.5 ± 1.47%; inhibition at 125 µg/mL ([6]; 125 μg/mL, n = 3): 61.2 ± 1.71%; inhibition at 250 µg/mL ([6]; 250 μg/mL, n = 3): 69.3 ± 1.38%; inhibition at 500 µg/mL ([6]; 500 μg/mL, n = 3): 76.2 ± 1.01%; inhibition at 1000 µg/mL ([6]; 1000 μg/mL, n = 3): 84.4 ± 1.36%; IC50 [6, 7]: 198 µM
CCCCCCCCCCCCCCCCCCCCCC(=O)O [Compound X, docosanoic acid] | 95 µg/mL | 46.17 ± 3.01% |  | 60.61 ± 0.71% | 69.19 ± 2.27% | 78.81 ± 2.10% | 95 µg/mL | 46.01 ± 1.06% | 54.13 ± 0.31% | 60.11 ± 1.90% | 68.99 ± 1.88% | 78.03 ± 1.51% | 49.13 ± 0.31% | 125 µg/mL | 40.01 ± 2.06 ^ns % | 50.11 ± 1.31 % | 59.11 ± 2.13 % | 65.19 ± 1.28 % |  | 382 µM | inhibition at 62.5 µg/mL [4]: 43 ± 1.06%; inhibition at 250 µg/mL [3]: 55.5 ± 0.8%; inhibition at 500 µg/mL [3]: 62 ± 0.78%; inhibition at 1000 µg/mL [3]: 69.1 ± 2.01%; inhibition at 62.5 µg/mL [5]: 43.2 ± 3.01%; IC50 [6]: 382 µM; inhibition at 125 µg/mL [6]: 49.3 ± 2.32%; inhibition at 250 µg/mL [6]: 56.1 ± 1.51%; inhibition at 500 µg/mL [6]: 62.5 ± 1.37%; inhibition at 1000 µg/mL [6]: 70.1 ± 1.4%
C[C@H]1O[C@H](O[C@H]2[C@H](O)[C@@H](O)[C@@H](O[C@H]3[C@H](O)[C@@H](O)C(O)O[C@@H]3CO)O[C@@H]2CO)[C@H](O)[C@@H](O)[C@@H]1N[C@H]1C=C(CO)[C@@H](O)[C@H](O)[C@H]1O (stereo partly shown) [Acarbose, reference compound] |  |  |  |  |  |  |  |  |  |  |  |  |  |  | 48.13 ± 2.09% | 57.03 ± 1.19% | 66.37 ± 1.18% | 77.11 ± 1.41% | 92.12 ± 0.83% |  | Percent Inhibition of α-Glucosidase (Mean ± S.E.M) (α-glucosidase): 93.72 ± 1.03% and 67.16 ± 1.58% and 58.73 ± 1.09% and 48.76 ± 2.20%
O=COC(O)O [Compound XI, methanetriol mano formate] | 95 µg/mL | 46.22 ± 0.60% | 54.15 ± 1.28% | 62.13 ± 1.08% | 71.17 ± 2.14% | 80.41 ± 2.16% | 95 µg/mL | 46.23 ± 1.49% | 54.30 ± 1.15% | 61.04 ± 2.38% | 70.15 ± 1.16% | 79.17 ± 0.53% |  | 98 µg/mL | 46.98 ± 2.49 % | 54.13 ± 2.17 % | 63.21 ± 1.69 % | 70.91 ± 2.11 % | 81.90 ± 0.73 % | 815 µM | inhibition at 62.5 µg/mL ([4]; 62.5 μg/mL, n = 3): 48 ± 2.06%; inhibition at 125 µg/mL ([3]; 125 μg/mL, n = 3): 57.1 ± 1.31%; inhibition at 250 µg/mL ([3]; 250 μg/mL, n = 3): 63.7 ± 2.24%; inhibition at 500 µg/mL ([3]; 500 μg/mL, n = 3): 71.2 ± 1.31%; inhibition at 1000 µg/mL ([3]; 1000 μg/mL, n = 3): 81.3 ± 1.41%; inhibition at 62.5 µg/mL ([5]; 62.5 μg/mL, n = 3): 48.2 ± 3.34%; inhibition at 250 µg/mL ([6]; 250 μg/mL, n = 3): 64.5 ± 3.04%; inhibition at 500 µg/mL ([6]; 500 μg/mL, n = 3): 71.2 ± 2.42%; inhibition at 1000 µg/mL ([6]; 1000 μg/mL, n = 3): 81.4 ± 2.51%; IC50 [6, 7]: 815 µM
